The values below come from patent US20240148821A1, “PHARMACEUTICAL USE OF CYCLIC PEPTIDE COMPOUND” (CHUGAI SEIYAKU KABUSHIKI KAISHA, priority 2021, published 2024).

pIC50: −log10 of the molar value. Bridge positions count the residues as written; N and C are the ends. Square brackets hold non-standard residues; d marks the D form. Peptide text beside a SMILES is read from it. * marks the point of attachment. hPhe(3,5-F2-4-CF3) = N[C@@H](CCc1cc(F)c(C(F)(F)F)c(F)c1)C(=O)O; hPhe(3-Cl-4-CF3) = N[C@@H](CCc1ccc(C(F)(F)F)c(Cl)c1)C(=O)O; hPhe(3-F,4-CF3) = N[C@@H](CCc1ccc(C(F)(F)F)c(F)c1)C(=O)O; NMePhe(4-CF3) = CN[C@@H](Cc1ccc(C(F)(F)F)cc1)C(=O)O; NMeAbu(4,4,4-F3) = CN[C@@H](CC(F)(F)F)C(=O)O; NMePhe(4-Me) = CN[C@@H](Cc1ccc(C)cc1)C(=O)O; NMeGly(cPent) = CN[C@H](C(=O)O)C1CCCC1; Pro(4,4-F2) = O=C(O)[C@@H]1CC(F)(F)CN1; NMeCha = CN[C@@H](CC1CCCCC1)C(=O)O; Hyp = O=C(O)[C@@H]1C[C@@H](O)CN1; NEtLeu = CCN[C@@H](CC(C)C)C(=O)O; NMeChg = CN[C@H](C(=O)O)C1CCCCC1; NMeI = CC[C@H](C)[C@H](NC)C(=O)O; NMeD = CN[C@@H](CC(=O)O)C(=O)O; NMeL = CN[C@@H](CC(C)C)C(=O)O; NMeNva = CCC[C@H](NC)C(=O)O; NMeV = CN[C@H](C(=O)O)C(C)C; Azetidin(1-yl) = C1CN(*)C1; Morpholide = C1CN(*)CCO1; NMeA = CN[C@@H](C)C(=O)O; Piperidide = C1CCN(*)CC1; Pyrrolidide = C1CCN(*)C1; Ac5c = NC1(C(=O)O)CCCC1; Aze = O=C(O)[C@@H]1CCN1; Ac4c = NC1(C(=O)O)CCC1; NEtG = CCNCC(=O)O; Sar = CNCC(=O)O

Experiment [1] concerns the target protein-protein interaction between Kras and SOS1 (biotin-tagged human Kras loaded with GDP, His-tagged human SOS1) (Homo sapiens (Human), UniProt P01116, G12D). Kind of experiment: Protein-protein interaction inhibition between Kras and SOS1 (KrasG12D-SOS PPI) using AlphaScreen.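 Also: kras produced in E. coli, Ni-coupled donor beads and streptavidin acceptor beads, excitation 680 nm with emission detected at 520–620 nm via singlet oxygen transfer.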 It counts as biochemical. The settings on record: AlphaScreen; biotin-tagged human Kras loaded with GDP, His-tagged human SOS1; read-out: KRAS G12D-SOS PPI IC50. On the technique in general: In Alpha technology, singlet oxygen from a donor bead excites a nearby acceptor bead.

Experiment [2] deals with Human pancreatic cancer cell line AsPC-1 (G12D mutation Kras). Put plainly: AsPC-1 cell growth inhibition (AsPC-1 CGI). It counts as cell-based. The settings on record: read-out: AsPC-1 cell growth inhibition, 50% growth inhibitory concentration (IC50 value); 96 hours, CellTiter-Glo, values classified in ranges. (Cellular ATP, detected with luciferase, serves as a proxy for viable cell number.)
Experimental: Test compounds were serially dilated with dimethyl sulfoxide, and 200 nL was then dispensed to a U-bottom 96-well plate using Labcyte Echo. […] The cell suspension was dispensed to a. plate containing a test compound at 100 μL per well and incubated at 37° C. in a 5% carbon dioxide gas incubator. 96 hours later, 80 μL of CellTiter-Glo (Promega) was added to each well and fluorescence was measured.

Turning to `CC[C@H](C)[C@@H]1NC(=O)[C@H](CC(C)C)N(CC)C(=O)C[C@@H](C(=O)N2CCOCC2)N(C)C(=O)[C@H]([C@@H](C)CC)N(C)C(=O)C2(CCCC2)NC(=O)[C@@H]2CCCN2C(=O)[C@H](CCc2ccc(C(F)(F)F)c(Cl)c2)NC(=O)CN(C)C(=O)[C@H](Cc2ccc(C(F)(F)F)cc2)N(C)C(=O)[C@@H]2CCN2C(=O)[C@H](C)N(C)C1=O` [Compound 1234] ([NEtLeu]I[NMeA][Aze][NMePhe(4-CF3)][Sar][hPhe(3-Cl-4-CF3)]P[Ac5c][NMeI][NMeD]-Morpholide; lactam N-11), the results for the pIC50 in experiment [1] and in experiment [2] were 8.35 and at least 7.70, respectively.
For `CCO[C@@H]1C[C@H]2C(=O)NC3(CCC3)C(=O)N(C)[C@@H](C3CCCCC3)C(=O)N(C)[C@H](C(=O)N3CCCC3)CC(=O)N(C)[C@@H](CC(C)C)C(=O)N[C@@H]([C@@H](C)CC)C(=O)N(C)CC(=O)N(C)CC(=O)N(C)[C@@H](CC3CCCCC3)C(=O)N(C)CC(=O)N[C@@H](CCc3ccc(C(F)(F)F)c(Cl)c3)C(=O)N2C1` [Compound 1241] ([NMeL]I[Sar][Sar][NMeCha][Sar][hPhe(3-Cl-4-CF3)][Hyp](Et)[Ac4c][NMeChg][NMeD]-Pyrrolidide; lactam N-11) the same measures were 9.30 and at least 7.70.
For `CC[C@H](C)[C@@H]1NC(=O)[C@H](CC(C)C)N(C)C(=O)C[C@@H](C(=O)N2CCCC2)N(C)C(=O)[C@H]([C@@H](C)CC)N(C)C(=O)C2(CCCC2)NC(=O)[C@@H]2CC(F)(F)CN2C(=O)[C@H](CCc2ccc(C(F)(F)F)c(Cl)c2)NC(=O)CN(C)C(=O)[C@H](Cc2ccc(C(F)(F)F)cc2)N(C)C(=O)[C@@H]2CCN2C(=O)[C@H](C)N(C)C1=O` [Compound 1242] ([NMeL]I[NMeA][Aze][NMePhe(4-CF3)][Sar][hPhe(3-Cl-4-CF3)][Pro(4,4-F2)][Ac5c][NMeI][NMeD]-Pyrrolidide; lactam N-11), the pIC50 in experiment [1] is 9.28; in experiment [2], at least 7.70.
For `CC[C@H](C)[C@@H]1NC(=O)[C@H](CC(C)C)N(C)C(=O)C[C@@H](C(=O)N2CCC2)N(C)C(=O)[C@H](C2CCCC2)N(C)C(=O)C2(CCCC2)NC(=O)[C@@H]2CC(F)(F)CN2C(=O)[C@H](CCc2cc(F)c(C(F)(F)F)c(F)c2)NC(=O)CN(C)C(=O)[C@H](CC2CCCCC2)N(C)C(=O)[C@@H]2CCN2C(=O)[C@H](C)N(C)C1=O` [Compound 1248] ([NMeL]I[NMeA][Aze][NMeCha][Sar][hPhe(3,5-F2-4-CF3)][Pro(4,4-F2)][Ac5c][NMeGly(cPent)][NMeD]-{Azetidin(1-yl)}; lactam N-11) the same measures were 9.17 and at least 7.70.
The corresponding values for `CCO[C@@H]1C[C@H]2C(=O)NC3(CCCC3)C(=O)N(C)[C@@H](C3CCCC3)C(=O)N(C)[C@H](C(=O)N3CCOCC3)CC(=O)N(C)[C@@H](CC(C)C)C(=O)N[C@@H]([C@@H](C)CC)C(=O)N(C)[C@@H](C)C(=O)N3CC[C@H]3C(=O)N(C)[C@@H](CC3CCCCC3)C(=O)N(C)CC(=O)N[C@@H](CCc3cc(F)c(C(F)(F)F)c(F)c3)C(=O)N2C1` [Compound 1250] ([NMeL]I[NMeA][Aze][NMeCha][Sar][hPhe(3,5-F2-4-CF3)][Hyp](Et)[Ac5c][NMeGly(cPent)][NMeD]-Morpholide; lactam N-11) are 9.20 and at least 7.70.
The corresponding values for `CCO[C@@H]1C[C@H]2C(=O)NC3(CCCC3)C(=O)N(C)[C@@H](C3CCCC3)C(=O)N(C)[C@H](C(=O)N3CCOCC3)CC(=O)N(C)[C@@H](CC(C)C)C(=O)N[C@@H]([C@@H](C)CC)C(=O)N(C)[C@@H](C)C(=O)N3CC[C@H]3C(=O)N(C)[C@@H](CC3CCCCC3)C(=O)N(C)CC(=O)N[C@@H](CCc3ccc(C(F)(F)F)c(Cl)c3)C(=O)N2C1` [Compound 1259] ([NMeL]I[NMeA][Aze][NMeCha][Sar][hPhe(3-Cl-4-CF3)][Hyp](Et)[Ac5c][NMeGly(cPent)][NMeD]-Morpholide; lactam N-11) are 9.31 and at least 7.70.
In the case of `CC[C@H](C)[C@@H]1NC(=O)[C@H](CC(C)C)N(C)C(=O)C[C@@H](C(=O)N(C)C)N(C)C(=O)[C@H](C2CCCC2)N(C)C(=O)C2(CCCC2)NC(=O)[C@@H]2CC(F)(F)CN2C(=O)[C@H](CCc2ccc(C(F)(F)F)c(F)c2)NC(=O)CN(C)C(=O)[C@H](CC2CCCCC2)N(C)C(=O)[C@@H]2CCN2C(=O)[C@H](C)N(C)C1=O` [Compound 1264] ([NMeL]I[NMeA][Aze][NMeCha][Sar][hPhe(3-F,4-CF3)][Pro(4,4-F2)][Ac5c][NMeGly(cPent)][NMeD]-NMe2; lactam N-11), the pIC50 in experiment [1] was 9.27; in experiment [2] it was at least 7.70.
For `CCC[C@H]1C(=O)N[C@@H]([C@@H](C)CC)C(=O)N(C)CC(=O)N(C)CC(=O)N(C)[C@@H](CC2CCCCC2)C(=O)N(C)CC(=O)N[C@@H](CCc2ccc(C(F)(F)F)c(Cl)c2)C(=O)N2C[C@H](OCC)C[C@H]2C(=O)NC2(CCCC2)C(=O)N(C)[C@@H](C2CCCCC2)C(=O)N(C)[C@H](C(=O)N2CCCC2)CC(=O)N1C` [Compound 1267] ([NMeNva]I[Sar][Sar][NMeCha][Sar][hPhe(3-Cl-4-CF3)][Hyp](Et)[Ac5c][NMeChg][NMeD]-Pyrrolidide; lactam N-11) the same measures were 9.44 and at least 7.70.
In the case of `CCO[C@@H]1C[C@H]2C(=O)NC3(CCCC3)C(=O)N(C)[C@@H](C3CCCCC3)C(=O)N(C)[C@H](C(=O)N3CCCC3)CC(=O)N(C)[C@@H](CC(F)(F)F)C(=O)N[C@@H]([C@@H](C)CC)C(=O)N(C)CC(=O)N(C)CC(=O)N(C)[C@@H](Cc3ccc(C(F)(F)F)cc3)C(=O)N(C)CC(=O)N[C@@H](CCc3cc(F)c(C(F)(F)F)c(F)c3)C(=O)N2C1` [Compound 1271] ([NMeAbu(4,4,4-F3)]I[Sar][Sar][NMePhe(4-CF3)][Sar][hPhe(3,5-F2-4-CF3)][Hyp](Et)[Ac5c][NMeChg][NMeD]-Pyrrolidide; lactam N-11), the values for the pIC50 in experiment [1] and in experiment [2] were 9.31 and at least 7.70, respectively.
The corresponding values for `CC[C@H](C)[C@@H]1NC(=O)[C@H](CC(C)C)N(C)C(=O)C[C@@H](C(=O)N2CCOCC2)N(C)C(=O)[C@H](C2CCCC2)N(C)C(=O)C2(CCCC2)NC(=O)[C@@H]2CCCN2C(=O)[C@H](CCc2ccc(C(F)(F)F)c(Cl)c2)NC(=O)CN(CC)C(=O)[C@H](CC2CCCCC2)N(C)C(=O)[C@@H]2CCN2C(=O)[C@H](C)N(C)C1=O` [Compound 1272] ([NMeL]I[NMeA][Aze][NMeCha][NEtG][hPhe(3-Cl-4-CF3)]P[Ac5c][NMeGly(cPent)][NMeD]-Morpholide; lactam N-11) are 8.70 and at least 7.70.
The corresponding values for `CC[C@H](C)[C@@H]1NC(=O)[C@H](CC(C)C)N(C)C(=O)C[C@@H](C(=O)N2CCCCC2)N(C)C(=O)[C@H](C(C)C)N(C)C(=O)C2(CCCC2)NC(=O)[C@@H]2CCCN2C(=O)[C@H](CCc2ccc(C(F)(F)F)c(Cl)c2)NC(=O)CN(CC)C(=O)[C@H](CC2CCCCC2)N(C)C(=O)[C@@H]2CCN2C(=O)[C@H](C)N(C)C1=O` [Compound 1276] ([NMeL]I[NMeA][Aze][NMeCha][NEtG][hPhe(3-Cl-4-CF3)]P[Ac5c][NMeV][NMeD]-Piperidide; lactam N-11) are 7.77 and under 6.30.
Take `CC[C@H](C)[C@@H]1NC(=O)[C@H](CC(C)C)N(C)C(=O)C[C@@H](C(=O)N2CCC2)N(C)C(=O)[C@H](C2CCCC2)N(C)C(=O)C2(CCCC2)NC(=O)[C@@H]2CC(F)(F)CN2C(=O)[C@H](CCc2ccc(C(F)(F)F)c(Cl)c2)NC(=O)CN(C)C(=O)[C@H](CC2CCCCC2)N(C)C(=O)[C@@H]2CCN2C(=O)[C@H](C)N(C)C1=O` [Compound 1283] ([NMeL]I[NMeA][Aze][NMeCha][Sar][hPhe(3-Cl-4-CF3)][Pro(4,4-F2)][Ac5c][NMeGly(cPent)][NMeD]-{Azetidin(1-yl)}; lactam N-11): the pIC50 in experiment [1] is 9.20; in experiment [2] it was at least 7.70.
Regarding `CCC[C@H]1C(=O)N[C@@H]([C@@H](C)CC)C(=O)N(C)CC(=O)N(C)CC(=O)N(C)[C@@H](Cc2ccc(C)cc2)C(=O)N(C)CC(=O)N[C@@H](CCc2ccc(C(F)(F)F)c(Cl)c2)C(=O)N2C[C@H](OCC)C[C@H]2C(=O)NC2(CCCC2)C(=O)N(C)[C@@H](C2CCCCC2)C(=O)N(C)[C@H](C(=O)N2CCCC2)CC(=O)N1C` [Compound 1285] ([NMeNva]I[Sar][Sar][NMePhe(4-Me)][Sar][hPhe(3-Cl-4-CF3)][Hyp](Et)[Ac5c][NMeChg][NMeD]-Pyrrolidide; lactam N-11), the pIC50 in experiment [1] is 9.28; in experiment [2], at least 7.70.
The corresponding values for `CCO[C@@H]1C[C@H]2C(=O)NC3(CCCC3)C(=O)N(C)[C@@H](C3CCCCC3)C(=O)N(C)[C@H](C(=O)N3CCOCC3)CC(=O)N(C)[C@@H](CC(C)C)C(=O)N[C@@H]([C@@H](C)CC)C(=O)N(C)CC(=O)N(C)CC(=O)N(C)[C@@H](CC3CCCCC3)C(=O)N(C)CC(=O)N[C@@H](CCc3cc(F)c(C(F)(F)F)c(F)c3)C(=O)N2C1` [Compound 1290] ([NMeL]I[Sar][Sar][NMeCha][Sar][hPhe(3,5-F2-4-CF3)][Hyp](Et)[Ac5c][NMeChg][NMeD]-Morpholide; lactam N-11) are 9.20 and at least 7.70.
Turning to `CC[C@H](C)[C@@H]1NC(=O)[C@H](CC(C)C)N(C)C(=O)C[C@@H](C(=O)N2CCOCC2)N(C)C(=O)[C@H]([C@@H](C)CC)N(C)C(=O)C2(CCCC2)NC(=O)[C@@H]2CCCN2C(=O)[C@H](CCc2ccc(C(F)(F)F)c(Cl)c2)NC(=O)CN(C)C(=O)[C@H](Cc2ccc(C(F)(F)F)cc2)N(C)C(=O)[C@@H]2CCN2C(=O)[C@H](C)NC1=O` [Compound 1293] ([NMeL]IA[Aze][NMePhe(4-CF3)][Sar][hPhe(3-Cl-4-CF3)]P[Ac5c][NMeI][NMeD]-Morpholide; lactam N-11), the figures for the pIC50 in experiment [1] and in experiment [2] were 9.02 and at least 7.70, respectively.
